Like-named read-outs stand apart in the source and are kept apart here.
What was measured:
[1] = acid (counterion) used in salt screen; cited from earlier work
[2] = water solubility, visual solubility estimation using pipet method; format: physicochemical; details: thermodynamic from solid
[3] = overnight slurry in solvent, NMR analysis of recovered solids; format: physicochemical
[4] = kinetic solubility at pH 7.4; format: physicochemical; details: pH 7.4, aqueous buffer, kinetic from dmso stock
From the text: (§1) The free base compound of Formula (I) was used as a starting material. The compound of Formula (I) (MW 806.973 g/mol) is a chimeric targeting molecule that has two ligands connected by a linker.

[5] = estimated solubility by adding test solvent in aliquots to weighed solid, visual inspection; format: physicochemical; details: thermodynamic from solid, read-out: Solubility
Experimental: Solubilities of the compound of Formula (I), free base, in a few solvents were estimated. The experiments were carried out by adding the test solvent in aliquots to weighed portions of solid. Whether dissolution had occurred was judged by visual inspection after addition of each solvent aliquot. Solubility numbers were calculated by dividing the weight of the sample by total amount of solvent used to dissolve the sample. The actual solubilities may be greater than the numbers calculated because of the use of solvent aliquots that were too large or because of slow dissolution rates. […] The solubility number is expressed as “greater than or equal to” if dissolution occurred on addition of the first solvent aliquot.
Solubilities of Fumarate Salt Form A are shown in Tables 8 and 9, in selected solvents and aqueous binary mixtures.
Solubilities of the compound of Formula (I), Fumarate Salt Form A, are shown in Tables 15 and 16, in selected solvents and aqueous binary mixtures.

[6] = dynamic vapor sorption (DVS) analysis, TA Instruments Q5000, 5 to 95% RH; format: physicochemical
Experimental: For Fumarate Salt Form A, Dynamic vapor sorption (DVS) analysis was carried out using a TA Instruments Q5000 Dynamic Vapor Sorption analyser. The instrument was calibrated with standard weights and a sodium bromide standard for humidity. Approximately 10-25 mg of sample was loaded into a metal coated quartz pan for analysis. The sample was analysed at 25° C. with a maximum equilibration time of one hour in 10% relative humidity (RH) steps from 5 to 95% RH (adsorption cycle) and from 95 to 5% RH (desorption cycle). The movement from one step to the next occurred either after satisfying the equilibrium criterion of 0.01% weight change, or when the equilibrium criterion was not met after one hour. The percent weight change values were then calculated.

[7] = pKa (base) of the free base compound of Formula (I); format: physicochemical
From the text: as §1

In the case of `O=C(O)[C@H](O)[C@@H](O)[C@H](O)[C@H](O)CO` [D-gluconic], the pKa [1] is listed as 3.76.
For `CN1CCN([C@@H]2CCCN(c3cnc(C(N)=O)c(Nc4ccc(C5CCN(CC6CCN(c7ccc(C(=O)N[C@H]8CCC(=O)NC8=O)nc7)CC6)CC5)cc4)n3)C2)C1=O.O=C(O)/C=C\C(=O)O` [Maleate Salt Form A], the solubility [2] was less than 300 µg/mL, the “1H NMR, post-EtOH slurry” value ([3]; slurry stirred overnight in EtOH) was “Consistent with a 1:1 salt” and the “1H NMR, post-water slurry” value ([3]; slurry stirred overnight in water) was “Not consistent with 1:1 salt (0.4”.
For `CN1CCN([C@@H]2CCCN(c3cnc(C(N)=O)c(Nc4ccc(C5CCN(CC6CCN(c7ccc(C(=O)N[C@H]8CCC(=O)NC8=O)nc7)CC6)CC5)cc4)n3)C2)C1=O` [free base compound of Formula (I)], the solubility kinetic [4] was 10 µM, the solubility ([5]; aqueous with cosolvent or surfactant or cyclodextrin, 1,4-dioxane/H2O (60/40), aw 1.0, at 60° C.) was 2000 µg/mL and the solubility ([5]; aqueous with cosolvent or surfactant or cyclodextrin, 1-pentanol/H2O (saturated) (80:20 - 2 phase system), at 60° C.) was less than 3000 µg/mL. The solubility ([5]; aqueous with cosolvent or surfactant or cyclodextrin, 2-propanol/H2O (80/20), aw 0.9, at 60° C.) was less than 2000 µg/mL, the solubility ([5]; aqueous with cosolvent or surfactant or cyclodextrin, acetone/H2O (70/30), aw 0.85, at 60° C.) was less than 2000 µg/mL and the solubility ([5]; aqueous with cosolvent or surfactant or cyclodextrin, acetonitrile/H2O (45/55), aw 0.9, at 60° C.) was less than 2000 µg/mL. The solubility ([5]; aqueous with cosolvent or surfactant or cyclodextrin, ethanol/H2O (70/30), aw 0.8, at 60° C.) was less than 2000 µg/mL, the solubility ([5]; aqueous with cosolvent or surfactant or cyclodextrin, methanol/H2O (50/50), aw 0.75, at 60° C.) was less than 2000 µg/mL and the solubility ([5]; aqueous with cosolvent or surfactant or cyclodextrin, tetrahydrofuran/H2O (80/20), aw 1, at RT) was 5000 µg/mL. It also gave a solubility ([5]; organic solvent or mixture, 1,2-dichloroethane, at 45° C.) of 2000 µg/mL, a solubility ([5]; organic solvent or mixture, 1,4-dioxane, solubility without temperature) of 6000 µg/mL and a solubility ([5]; organic solvent or mixture, 2-methyltetrahydrofuran (2-MeTHF), solubility without temperature) of less than 1000 µg/mL. It also gave a solubility ([5]; organic solvent or mixture, 2-propanol (2-PrOH), solubility without temperature) of less than 1000 µg/mL, a solubility ([5]; organic solvent or mixture, acetone, solubility without temperature) of less than 1000 µg/mL and a solubility ([5]; organic solvent or mixture, acetonitrile (ACN), solubility without temperature) of less than 1000 µg/mL. The solubility ([5]; organic solvent or mixture, anisole, at 60° C.) was less than 1000 µg/mL, the solubility ([5]; organic solvent or mixture, cyclohexane, at 60° C.) was less than 2000 µg/mL and the solubility ([5]; organic solvent or mixture, dichloromethane (DCM), solubility without temperature) was 17000 µg/mL. For the same compound, the solubility ([5]; organic solvent or mixture, diethyl ether (Et2O), solubility without temperature) was less than 1000 µg/mL, the solubility ([5]; organic solvent or mixture, dimethylformamide (DMF), solubility without temperature) was 21000 µg/mL and the solubility ([5]; organic solvent or mixture, dimethylsulfoxide (DMSO), solubility without temperature) was 9000 µg/mL. For the same compound, the solubility ([5]; organic solvent or mixture, ethanol (EtOH), solubility without temperature) was less than 1000 µg/mL, the solubility ([5]; organic solvent or mixture, ethyl acetate (EtOAc), solubility without temperature) was less than 1000 µg/mL and the solubility ([5]; organic solvent or mixture, heptane, at 60° C.) was less than 2000 µg/mL. It also gave a solubility ([5]; organic solvent or mixture, methanol (MeOH), solubility without temperature) of less than 1000 µg/mL, a solubility ([5]; organic solvent or mixture, methyl acetate (MeOAc), at 60° C.) of less than 1000 µg/mL and a solubility ([5]; organic solvent or mixture, methyl ethyl ketone (MEK), solubility without temperature) of less than 1000 µg/mL. For the same compound, the solubility ([5]; organic solvent or mixture, methyl tert-butyl ether (MTBE), at 60° C.) was less than 1000 µg/mL, the solubility ([5]; organic solvent or mixture, tetrahydrofuran (THF), solubility without temperature) was 9000 µg/mL and the solubility ([5]; organic solvent or mixture, toluene, at 60° C.) was less than 2000 µg/mL. The solubility ([5]; water, solubility without temperature) was less than 1000 µg/mL, the “DVS: weight gain up to 95% RH” value ([6]; 25° C.) was “approximately 7%” and the “DVS: hygroscopicity” value ([6]; 25° C., 5 to 95% RH) was “moderately hygroscopic”. For the same compound, the “Post-DVS XRPD” value ([6]; material after sorption/desorption cycle) was “unchanged” and the pKa [7] was roughly 6.5.
For `O=C(O)CNC(=O)c1ccccc1` [hippuric], the pKa [1] is listed as 3.55.

From patent US20250136579A1, “SALTS AND FREE BASES OF BIFUNCTIONAL COMPOUND AND POLYMORPH FORMS THEREOF” (NURIX THERAPEUTICS, INC., priority 2023, published 2025)
